Data published in US20120270237A9, “METHODS FOR THE IDENTIFICATION OF KINASE INTERACTING MOLECULES AND FOR THE PURIFICATION OF KINASE PROTEINS” (Cellzone AG, priority 2009, published 2012).

What was measured:
Assay in all cases: Kinobeads competition binding, HL60 cell lysate
Settings in all cases: 10 μM free compound
[1] = target: T1, ACK (Homo sapiens, UniProt Q07912)
T1 construct: endogenous in cells; host or cells: HL60 cells
Protocol: (§1) To one aliquot of cell lysate 10 μM of the free compound (FIG. 3, CZC31326) was added and allowed to bind to proteins in the lysate. Then the affinity matrix with the immobilized compound (Example 1) was added to capture proteins that were not interacting with the previously added free compound. Beads were separated from the lysate and bead bound proteins were eluted in SDS sample buffer and subsequently separated by SDS-Polyacrylamide gel electrophoresis (FIG. 4). Suitable gel bands were cut out and subjected to in-gel proteolytic digestion with trypsin. The second lysate aliquot was processed identically, however no free compound was added (DMSO solvent control). Peptides originating from samples 1 and 2 were labeled with iTRAQ reagents (iTRAQ 114 and iTRAQ 117) and the combined samples were analyzed with a nano-flow liquid chromatography system coupled online to a tandem mass spectrometer (LC-MS/MS) experiment followed by iTRAQ reporter ion quantification in the MS/MS spectra (Ross et al., 2004. Mol. Cell. Proteomics 3(12):1154-1169). Further experimental protocols can be found in WO2006/134056 and a previous publication (Bantscheff et al., 2007. Nature Biotechnology 25, 1035-1044). Sepharose-beads with the immobilized compound (100 μl beads per pull-down experiment) were equilibrated in lysis buffer and incubated with a cell lysate sample containing 50 mg of protein on an end-over-end shaker (Roto Shake Genie, Scientific Industries Inc.) for 2 hours at 4° C. Beads were collected, transferred to Mobicol-columns (MoBiTech 10055) and washed with 10 ml lysis buffer containing 0.4% NP40 detergent, followed by 5 ml lysis buffer containing 0.2% detergent. To elute bound proteins, 60 μl 2×SDS sample buffer was added to the column. The column was incubated for 30 minutes at 50° C. and the eluate was transferred to a siliconized microfuge tube by centrifugation. Proteins were then alkylated with 108 mM iodoacetamid. Proteins were then separated by SDS-Polyacrylamide electrophoresis (SDS-PAGE). The peptide extracts of samples treated with 10 μM of free compound (CZC31326) and the solvent control (0.5% DMSO) were treated with different variants of the isobaric tagging reagent (iTRAQ Reagents Multiplex Kit, part number 4352135, Applied Biosystems, Foster City, Calif., USA). The iTRAQ reagents are a set of multiplexed, amine-specific, stable isotope reagents that can label peptides on amino groups in up to four different biological samples enabling simultaneous identification and quantitation of peptides. The iTRAQ reagents were used according to instructions provided by the manufacturer. The samples were resuspended in 10 μl 50 mM TEAB solution, pH 8.5 and 10 μl ethanol were added. The iTRAQ reagent was dissolved in 120 μl ethanol and 10 μl of reagent solution were added to the sample. The labeling reaction was performed at room temperature for one hour on a horizontal shaker and stopped by adding 5 μl of 100 mM TEAB and 100 mM glycine in water. The two labeled sampled were then combined, dried in a vacuum centrifuge and resuspended in 10 μl of 0.1% formic acid in water. Relative protein quantitation was performed using peak areas of iTRAQ reporter ion signals essentially as described in an earlier publication (Bantscheff et al., 2007. Nature Biotechnology 25, 1035-1044).

[2] = target: T2, ALK4 (Homo sapiens, UniProt P36896)
T2 construct: endogenous in cells; host or cells: HL60 cells
Protocol: as §1

[3] = target: T3, CSK (Homo sapiens, UniProt P41240)
T3 construct: endogenous in cells; host or cells: HL60 (DSMZ ACC3)
Protocol: as §1

[4] = target: T4, DYRKIA (Homo sapiens, UniProt Q13627)
T4 construct: endogenous in cells; host or cells: HL60 (DSMZ ACC3)
Protocol: as §1

[5] = target: T5, LCK (Homo sapiens, UniProt P06239)
T5 construct: Identified kinases with CZC31326 from HL60 lysate; endogenous in cells; host or cells: HL60
Protocol: as §1

[6] = target: T6, MAP2K5 (Homo sapiens, UniProt Q13163)
T6 sequence (Q13163 1-448): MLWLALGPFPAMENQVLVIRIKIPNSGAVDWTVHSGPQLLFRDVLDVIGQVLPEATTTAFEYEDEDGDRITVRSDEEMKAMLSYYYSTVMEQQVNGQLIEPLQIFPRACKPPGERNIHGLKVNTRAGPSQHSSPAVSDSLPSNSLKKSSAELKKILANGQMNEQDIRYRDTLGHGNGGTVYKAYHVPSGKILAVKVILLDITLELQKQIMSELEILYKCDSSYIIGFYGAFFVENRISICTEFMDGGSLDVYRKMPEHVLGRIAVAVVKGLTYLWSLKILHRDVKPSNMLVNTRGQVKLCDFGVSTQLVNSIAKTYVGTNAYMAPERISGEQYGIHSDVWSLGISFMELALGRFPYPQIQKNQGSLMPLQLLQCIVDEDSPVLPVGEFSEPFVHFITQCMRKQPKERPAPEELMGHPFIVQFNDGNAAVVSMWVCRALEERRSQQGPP
Protocol: as §1

[7] = target: T7, MSK1 (Homo sapiens, UniProt O75582)
T7 construct: endogenous in cells; host or cells: HL60
Protocol: as §1

T1 sequence (Q07912 whole entry): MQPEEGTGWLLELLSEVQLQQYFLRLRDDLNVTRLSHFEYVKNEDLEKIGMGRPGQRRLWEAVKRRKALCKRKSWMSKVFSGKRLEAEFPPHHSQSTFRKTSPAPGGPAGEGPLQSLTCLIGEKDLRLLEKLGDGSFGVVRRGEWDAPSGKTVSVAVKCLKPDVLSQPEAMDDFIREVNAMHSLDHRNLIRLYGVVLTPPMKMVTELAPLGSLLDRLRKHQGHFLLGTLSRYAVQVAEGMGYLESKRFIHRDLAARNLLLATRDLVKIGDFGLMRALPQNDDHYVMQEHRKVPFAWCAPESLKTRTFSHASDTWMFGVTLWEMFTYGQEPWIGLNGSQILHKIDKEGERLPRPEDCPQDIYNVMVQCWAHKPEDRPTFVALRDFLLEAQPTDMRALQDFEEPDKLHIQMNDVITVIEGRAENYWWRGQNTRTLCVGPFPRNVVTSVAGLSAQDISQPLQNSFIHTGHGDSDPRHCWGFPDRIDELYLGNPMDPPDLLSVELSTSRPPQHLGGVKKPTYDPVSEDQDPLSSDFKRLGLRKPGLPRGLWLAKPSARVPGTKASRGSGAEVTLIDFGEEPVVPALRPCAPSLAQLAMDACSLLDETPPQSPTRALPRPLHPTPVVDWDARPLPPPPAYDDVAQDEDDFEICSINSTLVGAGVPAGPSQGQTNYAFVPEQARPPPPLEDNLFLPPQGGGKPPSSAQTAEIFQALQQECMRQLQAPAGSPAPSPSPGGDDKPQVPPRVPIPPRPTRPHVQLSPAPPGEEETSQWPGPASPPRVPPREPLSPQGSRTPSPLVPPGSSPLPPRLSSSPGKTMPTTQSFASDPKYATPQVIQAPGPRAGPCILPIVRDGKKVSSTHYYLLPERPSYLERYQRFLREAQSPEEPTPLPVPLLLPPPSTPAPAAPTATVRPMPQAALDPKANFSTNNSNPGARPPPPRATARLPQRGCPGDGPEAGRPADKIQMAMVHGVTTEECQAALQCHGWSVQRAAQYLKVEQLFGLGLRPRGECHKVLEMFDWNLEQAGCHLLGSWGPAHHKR
T2 sequence (P36896 24-505): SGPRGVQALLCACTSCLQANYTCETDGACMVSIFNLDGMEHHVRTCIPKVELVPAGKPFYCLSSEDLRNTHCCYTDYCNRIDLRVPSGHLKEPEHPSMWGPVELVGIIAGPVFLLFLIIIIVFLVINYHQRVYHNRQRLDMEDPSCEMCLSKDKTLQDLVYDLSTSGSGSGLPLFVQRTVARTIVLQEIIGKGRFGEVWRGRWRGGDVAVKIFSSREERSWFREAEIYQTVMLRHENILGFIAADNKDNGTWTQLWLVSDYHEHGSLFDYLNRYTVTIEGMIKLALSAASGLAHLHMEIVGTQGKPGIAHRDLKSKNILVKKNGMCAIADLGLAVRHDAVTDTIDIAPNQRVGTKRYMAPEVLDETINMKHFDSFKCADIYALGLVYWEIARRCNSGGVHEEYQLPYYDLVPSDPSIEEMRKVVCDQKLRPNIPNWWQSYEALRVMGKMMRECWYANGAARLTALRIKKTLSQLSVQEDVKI
T5 sequence (P06239 whole entry): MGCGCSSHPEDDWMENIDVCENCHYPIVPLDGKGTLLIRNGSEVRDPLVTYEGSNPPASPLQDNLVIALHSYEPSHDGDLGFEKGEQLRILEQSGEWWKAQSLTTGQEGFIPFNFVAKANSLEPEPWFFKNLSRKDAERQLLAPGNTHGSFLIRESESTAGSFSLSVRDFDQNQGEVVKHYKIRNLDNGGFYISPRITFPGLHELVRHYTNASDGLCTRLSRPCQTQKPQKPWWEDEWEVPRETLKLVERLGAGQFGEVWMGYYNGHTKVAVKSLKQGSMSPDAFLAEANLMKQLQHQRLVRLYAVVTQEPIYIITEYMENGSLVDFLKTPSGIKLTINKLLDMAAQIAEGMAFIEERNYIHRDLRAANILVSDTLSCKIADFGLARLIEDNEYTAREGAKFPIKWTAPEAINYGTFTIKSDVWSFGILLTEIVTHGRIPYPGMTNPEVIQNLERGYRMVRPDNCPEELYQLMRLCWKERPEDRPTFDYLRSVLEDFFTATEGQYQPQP
T7 sequence (O75582 whole entry): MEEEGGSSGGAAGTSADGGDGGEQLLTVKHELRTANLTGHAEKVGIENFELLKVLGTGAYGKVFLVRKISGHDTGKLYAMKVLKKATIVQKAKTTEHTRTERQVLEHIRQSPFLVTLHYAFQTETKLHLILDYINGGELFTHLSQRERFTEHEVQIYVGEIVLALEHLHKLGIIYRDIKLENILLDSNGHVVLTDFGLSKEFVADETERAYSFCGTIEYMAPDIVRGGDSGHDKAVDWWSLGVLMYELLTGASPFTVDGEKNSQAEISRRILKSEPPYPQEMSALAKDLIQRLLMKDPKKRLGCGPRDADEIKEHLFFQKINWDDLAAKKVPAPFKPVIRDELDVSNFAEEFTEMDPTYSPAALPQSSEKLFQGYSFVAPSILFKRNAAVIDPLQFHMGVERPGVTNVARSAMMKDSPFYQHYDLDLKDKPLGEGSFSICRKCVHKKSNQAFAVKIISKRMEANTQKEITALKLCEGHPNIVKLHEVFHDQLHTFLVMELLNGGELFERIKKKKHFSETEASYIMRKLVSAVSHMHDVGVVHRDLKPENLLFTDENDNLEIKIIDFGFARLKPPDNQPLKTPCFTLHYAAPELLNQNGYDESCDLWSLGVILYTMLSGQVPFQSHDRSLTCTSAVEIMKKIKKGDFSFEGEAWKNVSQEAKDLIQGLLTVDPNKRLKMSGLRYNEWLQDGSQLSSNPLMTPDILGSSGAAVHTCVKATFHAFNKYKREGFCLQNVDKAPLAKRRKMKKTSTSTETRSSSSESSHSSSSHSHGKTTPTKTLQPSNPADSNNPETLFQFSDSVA

- inhibition at 10 µM [1]: 93.6%
- inhibition at 10 µM [2]: 94.5%
- Competition % [3]: 80.3%
- inhibition at 10 µM [4]: 96.1%
- inhibition at 10 µM [5]: 86.8%
- inhibition at 10 µM [6]: 93.1%
- inhibition at 10 µM [7]: 94.7%
SMILES: CS(=O)(=O)Nc1ccccc1Nc1nc(Nc2cccc(OCCN)c2)ncc1Cl [CZC31326, N-(2-(2-(3-(2-aminoethoxy)phenylamino)-5-chloropyrimidin-4-ylamino)phenyl)methanesulfonamide]
